Measured values taken from PubChem BioAssay AID330 (DTP/NCI, 2004).
Several values for one entry are separate records, joined by “and”; a condition that tells them apart may be missing. Identical values can stand only once. Toxic doses and inconclusive results are not listed. How the source made its calls: active means survival T/C of 150% or more; inactive means T/C below 125% in these data.

System: P388 leukemia ip, CD2F1 mice, survival T/C
Assay: NCI In Vivo Anticancer Drug Screen. Data for tumor model P388 Leukemia (intraperitoneal) in CD2F1 (CDF1) mice
Settings: endpoint: median survival time, higher = longer survival
In short: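 Mice carrying the transplanted tumor received test compound or vehicle. Survival was recorded in each group, and the value is the treated-group measurement divided by that of the vehicle-treated control group.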

[1] = dose: 100.0 mg/kg/injection, schedule: Q01DX005 (ip), vehicle: saline with Tween-80
[2] = dose: 200.0 mg/kg/injection, schedule: Q01DX005 (ip), vehicle: saline with Tween-80
[3] = dose: 60.0 mg/kg/injection, schedule: Q01DX005 (ip), vehicle: saline with Tween-80
[4] = dose: 120.0 mg/kg/injection, schedule: Q01DX005 (ip), vehicle: saline with Tween-80
[5] = dose: 240.0 mg/kg/injection, schedule: Q01DX005 (ip), vehicle: saline with Tween-80
[6] = dose: 50.0 mg/kg/injection, schedule: Q01DX005 (ip), vehicle: saline with Tween-80
[7] = dose: 12.5 mg/kg/injection, schedule: Q01DX005 (ip), vehicle: saline with Tween-80
[8] = dose: 25.0 mg/kg/injection, schedule: Q01DX005 (ip), vehicle: saline with Tween-80
[9] = dose: 100.0 mg/kg/injection, schedule: Q04DX002 (ip), vehicle: Klucel (hydroxypropylcellulose) (HPC)
[10] = dose: 200.0 mg/kg/injection, schedule: Q04DX002 (ip), vehicle: Klucel (hydroxypropylcellulose) (HPC)
[11] = dose: 50.0 mg/kg/injection, schedule: Q01DX009 (ip), vehicle: saline with Tween-80
[12] = dose: 100.0 mg/kg/injection, schedule: Q01DX009 (ip), vehicle: saline with Tween-80
[13] = dose: 50.0 mg/kg/injection, schedule: Q01DX009 (ip), vehicle: Klucel (hydroxypropylcellulose) (HPC)
[14] = dose: 100.0 mg/kg/injection, schedule: Q01DX009 (ip), vehicle: Klucel (hydroxypropylcellulose) (HPC)
[15] = dose: 200.0 mg/kg/injection, schedule: Q01DX009 (ip), vehicle: Klucel (hydroxypropylcellulose) (HPC)

Measured: T/C

Nc1ccc(NCCCC2CCCN3CCCCC23)c2c(=O)c3ccccc3sc12 (stereo not given)
inactive: dose: 13.5 mg/kg/injection, schedule: Q01DX005 (ip), vehicle: saline with Tween-80 104 % of control | dose: 27.0 mg/kg/injection, schedule: Q01DX005 (ip), vehicle: saline with Tween-80 91 % of control | dose: 54.0 mg/kg/injection, schedule: Q01DX005 (ip), vehicle: saline with Tween-80 101 % of control | [1] 110 % of control | dose: 108.0 mg/kg/injection, schedule: Q01DX005 (ip), vehicle: saline with Tween-80 107 % of control | [2] 120 % of control

CC(C)(Sc1ccc(Cl)cc1)C(=O)OCCN1CCCCC1
inactive: [3] 91 % of control | [4] 92 % of control | [5] 92 % of control

NCCCCC(C(=O)NC(Cc1ccc(O)cc1)C(=O)NC(CO)C(=O)OCc1ccc([N+](=O)[O-])cc1)N(C(=O)OCc1ccccc1)C(=O)OCc1ccccc1 (stereo not given)
inactive: [6] 101 % of control | [1] 100 % of control | [2] 97 % of control

CC1(CN2CCCCC2)COc2c(Cl)cc(Cl)cc2C1=O (stereo not given)
inactive: [3] 94 % of control | [4] 94 % of control | [5] 86 % of control

C/C(=N/N)c1ccc(Br)cc1
inactive: dose: 6.25 mg/kg/injection, schedule: Q01DX009 (ip), vehicle: saline with Tween-80 100 % of control | dose: 12.5 mg/kg/injection, schedule: Q01DX009 (ip), vehicle: saline with Tween-80 104 % of control

COc1cc2c(cc1OC)C1Cc3cc(OC)c(OC)cc3[N+]1(C)CC2 (stereo not given)
inactive: [6] 103 % of control | [1] 103 % of control

O=C(Oc1ccccc1)C1CC2(C1)CC(C(=O)Oc1ccccc1)C2 (stereo not given)
inactive: dose: 100.0 mg/kg/injection, schedule: Q04DX002 (ip), vehicle: saline with Tween-80 101 % of control | dose: 200.0 mg/kg/injection, schedule: Q04DX002 (ip), vehicle: saline with Tween-80 99 % of control | dose: 400.0 mg/kg/injection, schedule: Q04DX002 (ip), vehicle: saline with Tween-80 99 % of control

COc1ccc(Cl)c2c1[nH]c1nc3nc4cc(Cl)ccc4n3nc12
inactive: [7] 90 % of control | [8] 94 % of control | [6] 101 % of control and 105 % of control | [1] 105 % of control | [2] 111 % of control

CC1(C)OC2(C)CCC1C1C2N1C(=O)C1CC1 (stereo not given)
inactive: [6] 97 % of control | [1] 104 % of control | [2] 105 % of control

N#CC(CCCCl)(c1ccccc1)c1ccccc1
inactive: [9] 107 % of control | [10] 108 % of control | dose: 400.0 mg/kg/injection, schedule: Q04DX002 (ip), vehicle: Klucel (hydroxypropylcellulose) (HPC) 108 % of control

CN(C)c1nnnn1-c1ccccc1
inactive: [3] 104 % of control | [4] 107 % of control | [5] 107 % of control

CC1(C)COP(Oc2ccccc2)OC1
inactive: dose: 25.0 mg/kg/injection, schedule: Q01DX009 (ip), vehicle: saline + Tween-80 + alcohol 102 % of control | dose: 50.0 mg/kg/injection, schedule: Q01DX009 (ip), vehicle: saline + Tween-80 + alcohol 103 % of control | dose: 100.0 mg/kg/injection, schedule: Q01DX009 (ip), vehicle: saline + Tween-80 + alcohol 100 % of control | dose: 200.0 mg/kg/injection, schedule: Q01DX009 (ip), vehicle: saline + Tween-80 + alcohol 96 % of control

O/N=C/c1cnns1
inactive: [6] 105 % of control | [1] 100 % of control | [2] 100 % of control

O=CN(CC(=O)O)CC(=O)O
inactive: dose: 50.0 mg/kg/injection, schedule: Q01DX005 (ip), vehicle: saline 100 % of control | dose: 100.0 mg/kg/injection, schedule: Q01DX005 (ip), vehicle: saline 100 % of control | dose: 200.0 mg/kg/injection, schedule: Q01DX005 (ip), vehicle: saline 102 % of control

CC(C)(C)OC(=O)NC1CCC2CCCCC2C1 (stereo not given)
inactive: dose: 100.0 mg/kg/injection, schedule: Q04DX003 (ip), vehicle: saline 100 % of control | dose: 200.0 mg/kg/injection, schedule: Q04DX003 (ip), vehicle: saline 104 % of control | dose: 400.0 mg/kg/injection, schedule: Q04DX003 (ip), vehicle: saline 100 % of control

CC1C(=O)OC2C1CCC1(C)C=CC(=O)C(C)C21 (stereo not given)
inactive: dose: 12.5 mg/kg/injection, schedule: Q04DX002 (ip), vehicle: saline with Tween-80 110 % of control | dose: 25.0 mg/kg/injection, schedule: Q04DX002 (ip), vehicle: saline with Tween-80 103 % of control

C=CCc1ccc(OCCN(CC)CC)c(OC)c1
inactive: [7] 117 % of control | [8] 113 % of control | [6] 98 % of control

CCOC(=O)c1cnc2cc3c(c[nH]n3C(c3ccccc3)(c3ccccc3)c3ccccc3)cc2c1=O
inactive: [11] 94 % of control | [12] 96 % of control | dose: 200.0 mg/kg/injection, schedule: Q01DX009 (ip), vehicle: saline with Tween-80 97 % of control

CC(C)(C)N=C(CCNC1CCCCC1)Nc1c(Cl)cccc1Cl
inactive: [11] 100 % of control | [12] 106 % of control

Cc1ccc(S(=O)(=O)N/N=C/c2ccc(C(=O)O)cc2)cc1
inactive: dose: 12.5 mg/kg/injection, schedule: Q01DX009 (ip), vehicle: other 105 % of control | dose: 25.0 mg/kg/injection, schedule: Q01DX009 (ip), vehicle: other 111 % of control | dose: 50.0 mg/kg/injection, schedule: Q01DX009 (ip), vehicle: other 109 % of control | dose: 100.0 mg/kg/injection, schedule: Q01DX009 (ip), vehicle: other 100 % of control | dose: 200.0 mg/kg/injection, schedule: Q01DX009 (ip), vehicle: other 95 % of control | dose: 400.0 mg/kg/injection, schedule: Q01DX009 (ip), vehicle: other 105 % of control

C=CCC12C=C(OC)C(=O)C=C1OC(c1ccc3c(c1)OCO3)C2C (stereo not given)
inactive: dose: 16.25 mg/kg/injection, schedule: Q01DX005 (ip), vehicle: Klucel (hydroxypropylcellulose) (HPC) 104 % of control | dose: 32.5 mg/kg/injection, schedule: Q01DX005 (ip), vehicle: Klucel (hydroxypropylcellulose) (HPC) 104 % of control | dose: 65.0 mg/kg/injection, schedule: Q01DX005 (ip), vehicle: Klucel (hydroxypropylcellulose) (HPC) 94 % of control | dose: 130.0 mg/kg/injection, schedule: Q01DX005 (ip), vehicle: Klucel (hydroxypropylcellulose) (HPC) 94 % of control

O=C(O)c1ccnc2c1ccc1ccccc12
inactive: [9] 103 % of control | [10] 94 % of control

Cc1noc(/N=N/N(C)c2ccccc2)c1C
inactive: [11] 103 % of control | [12] 96 % of control

N#CC1C(=O)NC(=S)NC1c1ccco1 (stereo not given)
inactive: [13] 100 % of control | [14] 95 % of control | [15] 92 % of control

Cc1cccc(-n2nc(C(=O)O)c(=O)[nH]c2=O)c1
inactive: dose: 100.0 mg/kg/injection, schedule: Q01DX001 (ip), vehicle: saline with Tween-80 104 % of control | dose: 200.0 mg/kg/injection, schedule: Q01DX001 (ip), vehicle: saline with Tween-80 99 % of control | dose: 400.0 mg/kg/injection, schedule: Q01DX001 (ip), vehicle: saline with Tween-80 95 % of control

CC(=N)C(C#N)C(=S)S (stereo not given)
inactive: [13] 102 % of control | [14] 86 % of control | [15] 89 % of control

Cc1ccccc1C1(Br)C(=O)c2ccccc2C1=O
inactive: dose: 100.0 mg/kg/injection, schedule: Q04DX002 (ip), vehicle: saline 101 % of control | dose: 200.0 mg/kg/injection, schedule: Q04DX002 (ip), vehicle: saline 101 % of control | dose: 400.0 mg/kg/injection, schedule: Q04DX002 (ip), vehicle: saline 102 % of control
